{"source": "ChEMBL document CHEMBL1201862", "about": "“PubChem BioAssay data set” (2004)", "key": {"[1]": {"target": "Voltage-dependent T-type calcium channel subunit alpha-1H (Homo sapiens, UniProt O95180)", "assay": "inhibition of CACNA1H calcium flux – cell-based, SynthLib3 library, HEK293 Cav3.2, fluorescence (AID 493041)", "assay_type": "functional"}, "Aspartyl aminopeptidase": {"target": "T1, Aspartyl aminopeptidase (Plasmodium falciparum 3D7, UniProt Q8I2J3)", "T1 sequence (Q8I2J3 whole entry)": "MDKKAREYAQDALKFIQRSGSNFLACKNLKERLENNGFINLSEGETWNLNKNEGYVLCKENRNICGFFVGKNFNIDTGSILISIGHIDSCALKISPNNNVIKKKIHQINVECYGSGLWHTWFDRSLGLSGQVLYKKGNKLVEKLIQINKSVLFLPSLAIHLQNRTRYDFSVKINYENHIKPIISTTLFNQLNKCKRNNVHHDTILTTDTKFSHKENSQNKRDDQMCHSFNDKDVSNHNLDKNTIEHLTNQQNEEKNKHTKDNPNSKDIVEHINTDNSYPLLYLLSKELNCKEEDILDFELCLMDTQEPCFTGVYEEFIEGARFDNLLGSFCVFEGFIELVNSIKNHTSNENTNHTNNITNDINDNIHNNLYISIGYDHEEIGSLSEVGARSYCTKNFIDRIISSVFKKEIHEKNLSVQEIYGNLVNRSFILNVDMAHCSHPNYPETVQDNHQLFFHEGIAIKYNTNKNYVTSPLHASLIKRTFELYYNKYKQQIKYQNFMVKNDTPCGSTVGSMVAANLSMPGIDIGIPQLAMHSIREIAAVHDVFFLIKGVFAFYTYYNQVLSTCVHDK", "assay": "Counterscreen for inhibitors of M1 and M17 aminopeptidases: QFRET-based biochemical high throughput dose response assay for inhibitors of the Plasmodium falciparum M18 Aspartyl Aminopeptidase (PFM18AAP). [Related PubChem assays: 1619 (Screening assay (M17LAP inhibitors).), 1445 (Screening assay (M1AAP inhibitors).)]"}, "Aminopeptidase N": {"target": "T2, Aminopeptidase N (Plasmodium falciparum FcB1/Columbia, UniProt O96935)", "T2 sequence (O96935 whole entry)": "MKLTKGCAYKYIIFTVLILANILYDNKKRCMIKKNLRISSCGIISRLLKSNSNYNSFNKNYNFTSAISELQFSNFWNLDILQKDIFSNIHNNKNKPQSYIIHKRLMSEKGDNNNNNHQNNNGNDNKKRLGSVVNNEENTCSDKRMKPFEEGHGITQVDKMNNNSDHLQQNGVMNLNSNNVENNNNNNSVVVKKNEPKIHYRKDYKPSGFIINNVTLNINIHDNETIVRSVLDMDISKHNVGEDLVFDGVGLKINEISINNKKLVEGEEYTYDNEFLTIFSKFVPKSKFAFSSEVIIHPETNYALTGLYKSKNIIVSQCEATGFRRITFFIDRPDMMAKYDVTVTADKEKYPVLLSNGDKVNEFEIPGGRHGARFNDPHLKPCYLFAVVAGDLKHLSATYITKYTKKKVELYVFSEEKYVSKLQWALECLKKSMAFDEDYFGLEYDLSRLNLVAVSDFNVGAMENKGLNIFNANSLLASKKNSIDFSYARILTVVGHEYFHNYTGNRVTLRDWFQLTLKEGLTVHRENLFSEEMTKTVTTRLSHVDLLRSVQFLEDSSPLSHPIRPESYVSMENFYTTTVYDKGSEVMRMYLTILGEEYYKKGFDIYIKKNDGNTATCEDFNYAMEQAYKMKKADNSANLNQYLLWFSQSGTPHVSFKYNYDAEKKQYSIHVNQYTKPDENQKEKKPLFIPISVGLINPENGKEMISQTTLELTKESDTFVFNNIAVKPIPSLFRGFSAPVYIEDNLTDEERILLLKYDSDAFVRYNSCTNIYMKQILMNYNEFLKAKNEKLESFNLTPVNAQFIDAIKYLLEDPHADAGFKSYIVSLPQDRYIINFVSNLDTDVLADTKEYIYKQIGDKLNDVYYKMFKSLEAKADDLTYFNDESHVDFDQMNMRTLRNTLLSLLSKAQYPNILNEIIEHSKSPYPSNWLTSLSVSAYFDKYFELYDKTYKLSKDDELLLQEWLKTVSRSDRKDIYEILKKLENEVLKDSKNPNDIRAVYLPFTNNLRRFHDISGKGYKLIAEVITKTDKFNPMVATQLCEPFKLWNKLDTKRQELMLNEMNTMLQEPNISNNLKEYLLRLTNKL", "assay": "malaria alanyl aminopeptidase activity blockers – biochemical, fluorogenic H-Leu-NHMec substrate, 1536-well (AID 1445)", "parameters": "species or system Plasmodium falciparum 3D7, 3D7"}, "Procathepsin L": {"target": "Procathepsin L (Homo sapiens, UniProt P07711)", "assay": "CTSL1 protease inhibition – biochemical, QFRET, 1536-well, counter-screen for M1/M17 aminopeptidase inhibitor project, dose response (AID 2214)"}, "[2]": {"target": "Intestinal-type alkaline phosphatase (Mus musculus, UniProt P24822)", "assay": "PubChem AID 488785", "assay_type": "functional"}, "[3]": {"target": "T3, Alkaline phosphatase, tissue-nonspecific isozyme (Homo sapiens, UniProt P05186)", "T3 sequence (P05186 whole entry)": "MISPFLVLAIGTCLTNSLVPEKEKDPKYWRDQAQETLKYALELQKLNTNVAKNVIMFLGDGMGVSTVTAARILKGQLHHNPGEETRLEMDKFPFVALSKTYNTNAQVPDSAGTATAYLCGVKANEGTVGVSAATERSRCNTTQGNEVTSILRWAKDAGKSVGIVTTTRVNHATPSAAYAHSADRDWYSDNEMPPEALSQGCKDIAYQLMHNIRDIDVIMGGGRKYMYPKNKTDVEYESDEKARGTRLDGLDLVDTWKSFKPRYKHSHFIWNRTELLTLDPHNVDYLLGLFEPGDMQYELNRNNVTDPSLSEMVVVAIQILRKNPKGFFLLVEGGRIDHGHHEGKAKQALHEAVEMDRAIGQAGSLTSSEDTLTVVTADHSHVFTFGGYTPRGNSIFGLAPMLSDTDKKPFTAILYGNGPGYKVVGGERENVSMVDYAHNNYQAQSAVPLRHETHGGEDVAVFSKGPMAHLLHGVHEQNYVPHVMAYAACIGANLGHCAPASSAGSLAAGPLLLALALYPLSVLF", "assay": "TNAP enzyme inhibition by screening hits, dose response, selectivity assay for mouse IAP inhibitor project, biochemical, human TNAP, uHTS hits (AID 488906)", "assay_type": "functional"}, "[4]": {"target": "Intestinal-type alkaline phosphatase (Homo sapiens, UniProt P09923)", "sequence (P09923 whole entry)": "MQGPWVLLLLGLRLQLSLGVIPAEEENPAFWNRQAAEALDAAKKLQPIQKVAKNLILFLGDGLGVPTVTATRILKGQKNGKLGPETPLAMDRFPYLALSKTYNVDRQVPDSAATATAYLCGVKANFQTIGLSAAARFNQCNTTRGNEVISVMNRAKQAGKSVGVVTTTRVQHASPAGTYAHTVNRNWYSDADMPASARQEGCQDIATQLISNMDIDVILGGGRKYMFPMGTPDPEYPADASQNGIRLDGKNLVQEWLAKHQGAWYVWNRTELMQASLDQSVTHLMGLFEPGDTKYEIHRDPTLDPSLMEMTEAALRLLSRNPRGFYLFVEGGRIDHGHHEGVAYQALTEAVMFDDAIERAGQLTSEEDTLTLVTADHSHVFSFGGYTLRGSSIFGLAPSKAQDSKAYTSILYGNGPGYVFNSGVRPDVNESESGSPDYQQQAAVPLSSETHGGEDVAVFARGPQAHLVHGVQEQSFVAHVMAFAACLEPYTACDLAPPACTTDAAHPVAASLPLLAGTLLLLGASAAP", "assay": "inhibition of human intestinal alkaline phosphatase – biochemical, dose response (AID 488876)", "assay_type": "functional"}, "Cannabinoid receptor 2 [5]": {"target": "T4, Cannabinoid receptor 2 (Homo sapiens, UniProt P34972)", "T4 sequence (P34972 whole entry)": "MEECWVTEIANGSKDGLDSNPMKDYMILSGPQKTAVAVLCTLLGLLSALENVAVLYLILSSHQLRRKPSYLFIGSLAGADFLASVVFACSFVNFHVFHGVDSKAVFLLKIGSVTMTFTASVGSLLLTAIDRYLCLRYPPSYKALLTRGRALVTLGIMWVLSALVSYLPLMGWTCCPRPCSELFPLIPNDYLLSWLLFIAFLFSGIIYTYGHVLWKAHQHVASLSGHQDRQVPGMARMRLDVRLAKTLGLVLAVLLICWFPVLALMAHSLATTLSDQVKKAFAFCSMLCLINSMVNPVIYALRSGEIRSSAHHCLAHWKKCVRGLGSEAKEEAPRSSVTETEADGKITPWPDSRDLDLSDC", "assay": "SAR analysis of antagonists of the Cannabinoid Receptor 2 using an Image-Based Assay - Set 2. [Related pubchem assays (depositor defined):AID1961, AID1965]", "assay_type": "functional"}, "Cannabinoid receptor 2 [6]": {"target": "T4, Cannabinoid receptor 2", "assay": "SAR analysis of agonists of the Cannabinoid Receptor 2 using an Image-Based Assay - Set 2. [Related pubchem assays (depositor defined):AID1961, AID1965]", "assay_type": "functional"}, "[7]": {"target": "G-protein coupled receptor 55 (Homo sapiens, UniProt Q9Y2T6)", "assay": "SAR analysis of selective Agonists of GPR55 using an Image-Based Assay. [Related pubchem assays (depositor defined):AID1961, AID1965]", "assay_type": "functional"}, "Cannabinoid receptor 1": {"target": "Cannabinoid receptor 1 (Homo sapiens, UniProt P21554)", "assay": "SAR analysis of antagonists of the Cannabinoid Receptor 1 using an Image-Based Assay. [Related pubchem assays (depositor defined):AID1961, AID1965]", "assay_type": "functional"}, "[8]": {"target": "T5, Delta-type opioid receptor (Homo sapiens, UniProt P41143)", "T5 sequence (P41143 whole entry)": "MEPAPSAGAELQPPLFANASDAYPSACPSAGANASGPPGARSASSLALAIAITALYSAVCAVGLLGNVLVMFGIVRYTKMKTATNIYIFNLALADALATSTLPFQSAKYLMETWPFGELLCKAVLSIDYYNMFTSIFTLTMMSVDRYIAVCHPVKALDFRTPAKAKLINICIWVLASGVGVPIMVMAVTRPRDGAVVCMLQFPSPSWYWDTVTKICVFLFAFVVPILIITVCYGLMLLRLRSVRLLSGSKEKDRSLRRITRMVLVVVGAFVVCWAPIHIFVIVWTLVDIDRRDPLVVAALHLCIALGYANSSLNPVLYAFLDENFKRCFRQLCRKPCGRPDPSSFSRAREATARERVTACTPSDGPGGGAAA", "assay": "HTS Image-Based Screen for Antagonists of the DOR Receptor. [Related pubchem assays (depositor defined):AID1777, AID1785, AID1786, AID2133]", "assay_type": "functional"}, "Mu-type opioid receptor": {"target": "Mu-type opioid receptor (Homo sapiens, UniProt P35372)", "sequence (P35372 whole entry)": "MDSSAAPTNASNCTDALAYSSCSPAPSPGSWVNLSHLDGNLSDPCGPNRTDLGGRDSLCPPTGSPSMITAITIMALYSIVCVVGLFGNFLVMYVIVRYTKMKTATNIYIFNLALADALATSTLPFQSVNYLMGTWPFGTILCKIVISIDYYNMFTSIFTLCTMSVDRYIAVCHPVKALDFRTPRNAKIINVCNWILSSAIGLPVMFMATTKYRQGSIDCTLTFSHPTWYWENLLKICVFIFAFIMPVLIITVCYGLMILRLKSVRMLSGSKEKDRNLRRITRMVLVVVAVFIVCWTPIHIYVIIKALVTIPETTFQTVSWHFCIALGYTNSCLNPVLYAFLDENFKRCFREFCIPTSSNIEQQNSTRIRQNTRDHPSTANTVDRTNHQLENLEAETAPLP", "assay": "HTS Image-Based Screen for Agonists of the MOR Receptor. [Related pubchem assays (depositor defined):AID1777, AID1785, AID1786, AID2133]", "assay_type": "functional"}, "[9]": {"target": "T5, Delta-type opioid receptor", "assay": "HTS Image-Based Screen for Agonists of the DOR Receptor. [Related pubchem assays (depositor defined):AID1777, AID1786, AID2133]", "assay_type": "functional"}, "[10]": {"target": "T6, Kappa-type opioid receptor (Homo sapiens, UniProt P41145)", "T6 sequence (P41145 whole entry)": "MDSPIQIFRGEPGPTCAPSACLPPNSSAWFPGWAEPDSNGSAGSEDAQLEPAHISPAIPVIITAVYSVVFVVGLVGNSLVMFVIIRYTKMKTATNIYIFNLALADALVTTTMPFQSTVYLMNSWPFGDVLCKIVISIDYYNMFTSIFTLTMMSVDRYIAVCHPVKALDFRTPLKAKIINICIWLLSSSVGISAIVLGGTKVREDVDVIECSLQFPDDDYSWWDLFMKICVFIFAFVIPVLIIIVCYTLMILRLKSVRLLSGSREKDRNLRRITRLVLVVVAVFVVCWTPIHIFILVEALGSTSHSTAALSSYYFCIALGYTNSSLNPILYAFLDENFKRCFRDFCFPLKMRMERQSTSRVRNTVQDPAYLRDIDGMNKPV", "assay_type": "functional"}, "Beta-galactosidase": {"target": "Beta-galactosidase (Escherichia coli, UniProt Q8VNN2)", "assay_type": "functional"}, "[11]": {"target": "T6, Kappa-type opioid receptor", "assay_type": "functional", "remark": "listed apart in the source"}, "Exodeoxyribonuclease V": {"target": "Exodeoxyribonuclease V (Escherichia coli (strain K12), UniProt P04993+P07648+P08394)", "sequence (P04993 whole entry)": "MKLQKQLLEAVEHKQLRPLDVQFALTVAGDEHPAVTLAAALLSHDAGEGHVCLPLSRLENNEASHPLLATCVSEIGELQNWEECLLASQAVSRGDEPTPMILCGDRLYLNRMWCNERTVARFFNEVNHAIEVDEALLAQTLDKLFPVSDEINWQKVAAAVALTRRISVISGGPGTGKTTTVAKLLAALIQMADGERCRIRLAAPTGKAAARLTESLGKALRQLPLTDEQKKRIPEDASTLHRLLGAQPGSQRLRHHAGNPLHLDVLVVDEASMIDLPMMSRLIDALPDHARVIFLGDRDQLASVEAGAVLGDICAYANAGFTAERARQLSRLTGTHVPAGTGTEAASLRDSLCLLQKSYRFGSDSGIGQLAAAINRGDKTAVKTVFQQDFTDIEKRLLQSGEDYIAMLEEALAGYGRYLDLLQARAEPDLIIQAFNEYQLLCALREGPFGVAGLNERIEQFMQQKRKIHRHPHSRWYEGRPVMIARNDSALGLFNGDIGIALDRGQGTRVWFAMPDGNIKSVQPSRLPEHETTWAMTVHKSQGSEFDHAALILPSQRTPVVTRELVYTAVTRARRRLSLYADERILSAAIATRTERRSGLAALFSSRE", "sequence (P07648 whole entry)": "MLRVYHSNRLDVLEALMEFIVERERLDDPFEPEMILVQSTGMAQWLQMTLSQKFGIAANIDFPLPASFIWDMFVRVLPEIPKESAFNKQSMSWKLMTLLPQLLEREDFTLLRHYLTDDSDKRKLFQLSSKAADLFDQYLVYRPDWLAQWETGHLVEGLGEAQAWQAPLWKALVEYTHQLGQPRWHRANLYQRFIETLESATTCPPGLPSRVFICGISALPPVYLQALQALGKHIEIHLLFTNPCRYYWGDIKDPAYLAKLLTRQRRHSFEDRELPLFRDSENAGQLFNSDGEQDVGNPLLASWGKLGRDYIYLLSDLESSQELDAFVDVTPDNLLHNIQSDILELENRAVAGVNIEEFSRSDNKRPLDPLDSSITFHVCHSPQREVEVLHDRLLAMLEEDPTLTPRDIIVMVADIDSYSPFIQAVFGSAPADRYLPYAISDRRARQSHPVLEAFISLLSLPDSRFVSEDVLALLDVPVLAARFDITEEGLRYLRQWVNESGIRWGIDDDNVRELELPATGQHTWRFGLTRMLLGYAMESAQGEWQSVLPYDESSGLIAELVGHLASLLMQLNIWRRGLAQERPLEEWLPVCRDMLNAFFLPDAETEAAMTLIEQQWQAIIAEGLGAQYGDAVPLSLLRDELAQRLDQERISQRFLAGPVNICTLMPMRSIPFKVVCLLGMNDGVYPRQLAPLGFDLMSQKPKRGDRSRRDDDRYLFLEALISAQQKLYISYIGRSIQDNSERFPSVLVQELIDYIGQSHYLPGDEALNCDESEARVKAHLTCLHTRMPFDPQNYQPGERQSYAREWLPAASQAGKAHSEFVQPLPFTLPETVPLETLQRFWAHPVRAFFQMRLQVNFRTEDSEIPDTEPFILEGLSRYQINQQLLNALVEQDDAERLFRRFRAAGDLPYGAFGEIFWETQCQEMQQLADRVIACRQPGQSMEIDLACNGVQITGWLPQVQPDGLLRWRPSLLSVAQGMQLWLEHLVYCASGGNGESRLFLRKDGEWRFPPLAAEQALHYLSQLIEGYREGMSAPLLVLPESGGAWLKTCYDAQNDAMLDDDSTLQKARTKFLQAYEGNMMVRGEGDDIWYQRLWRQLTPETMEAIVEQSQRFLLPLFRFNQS", "sequence (P08394 whole entry)": "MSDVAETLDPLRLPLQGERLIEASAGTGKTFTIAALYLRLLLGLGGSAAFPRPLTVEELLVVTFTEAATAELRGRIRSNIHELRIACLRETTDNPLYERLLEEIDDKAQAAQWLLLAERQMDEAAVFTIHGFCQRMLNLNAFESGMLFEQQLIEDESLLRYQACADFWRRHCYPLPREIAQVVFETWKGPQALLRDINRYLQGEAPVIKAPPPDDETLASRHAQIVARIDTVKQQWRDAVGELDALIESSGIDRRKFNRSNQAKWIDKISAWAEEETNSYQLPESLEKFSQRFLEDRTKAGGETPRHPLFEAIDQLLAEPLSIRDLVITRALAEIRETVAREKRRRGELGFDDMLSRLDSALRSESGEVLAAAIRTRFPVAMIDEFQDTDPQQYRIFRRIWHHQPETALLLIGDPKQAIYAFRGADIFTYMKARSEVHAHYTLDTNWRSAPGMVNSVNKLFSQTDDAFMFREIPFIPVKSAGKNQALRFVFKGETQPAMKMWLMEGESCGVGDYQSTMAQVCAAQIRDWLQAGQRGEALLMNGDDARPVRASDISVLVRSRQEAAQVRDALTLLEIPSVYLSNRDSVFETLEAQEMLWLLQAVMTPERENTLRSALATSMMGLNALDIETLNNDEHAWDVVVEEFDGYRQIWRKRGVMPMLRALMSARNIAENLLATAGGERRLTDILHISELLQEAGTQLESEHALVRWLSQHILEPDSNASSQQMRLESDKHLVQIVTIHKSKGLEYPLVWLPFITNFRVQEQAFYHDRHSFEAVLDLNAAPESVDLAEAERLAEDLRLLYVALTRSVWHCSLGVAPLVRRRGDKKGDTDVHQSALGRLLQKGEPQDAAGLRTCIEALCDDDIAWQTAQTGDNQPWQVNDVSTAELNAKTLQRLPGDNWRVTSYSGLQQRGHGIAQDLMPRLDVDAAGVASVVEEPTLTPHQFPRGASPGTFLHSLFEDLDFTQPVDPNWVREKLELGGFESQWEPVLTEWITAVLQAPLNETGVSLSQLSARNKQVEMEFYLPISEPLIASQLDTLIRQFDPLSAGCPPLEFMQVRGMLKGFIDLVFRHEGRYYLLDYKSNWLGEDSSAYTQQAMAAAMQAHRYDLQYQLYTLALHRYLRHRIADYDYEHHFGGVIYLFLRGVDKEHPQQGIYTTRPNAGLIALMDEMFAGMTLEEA", "assay": "RecBCD inhibition via phage-restricted bacterial growth – absorbance, V66 E. coli, mutant T4 phage, counter-screen for AddAB inhibitor project, dose response (AID 492957)", "assay_type": "functional, cell-based, Escherichia coli str. K-12 substr. MG1655"}, "Nonstructural protein 1": {"target": "Nonstructural protein 1 (Influenza A virus, UniProt Q194T2)", "assay_type": "functional, Influenza A virus (A/California/07/2009(H1N1))"}, "[12]": {"assay": "Counterscreen for AddAB inhibitors: absorbance-based bacterial cell-based high throughput dose response assay for inhibitors of bacterial viability. [Related pubchem assays (depositor defined):AID435030, AID449728, AID449731, AID488942, AID488955, AID488956]", "assay_type": "functional"}, "[13]": {"target": "T7, Microphthalmia-associated transcription factor (Homo sapiens, UniProt O75030)", "T7 sequence (O75030 whole entry)": "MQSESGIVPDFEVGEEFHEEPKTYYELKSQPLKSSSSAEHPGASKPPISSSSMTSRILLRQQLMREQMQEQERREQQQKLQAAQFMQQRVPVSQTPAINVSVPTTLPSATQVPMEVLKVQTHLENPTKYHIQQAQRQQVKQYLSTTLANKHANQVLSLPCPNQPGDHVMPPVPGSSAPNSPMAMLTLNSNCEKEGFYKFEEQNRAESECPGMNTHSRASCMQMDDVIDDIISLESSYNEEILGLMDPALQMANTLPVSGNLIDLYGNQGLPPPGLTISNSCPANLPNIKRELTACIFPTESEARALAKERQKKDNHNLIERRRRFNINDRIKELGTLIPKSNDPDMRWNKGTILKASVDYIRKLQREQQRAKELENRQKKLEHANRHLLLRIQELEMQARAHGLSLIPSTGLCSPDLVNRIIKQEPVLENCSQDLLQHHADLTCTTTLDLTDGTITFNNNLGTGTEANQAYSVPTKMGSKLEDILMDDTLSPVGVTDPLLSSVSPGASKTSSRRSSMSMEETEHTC", "assay": "reducers of TRPM1 reporter luminescence, concentration series – cell-based, SK-MEL-5, cherry-picked, set 3, MITF inhibitor project, dose response (AID 493073);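 note: SK-MEL-5 melanoma cells with luciferase driven by the MITF target TRPM1 promoter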", "assay_type": "functional"}}, "note": "Active and inactive are the calls of the source."}
{"smiles": "CC(C)CCN1CC2CCC(NC(=O)c3cc(Cl)cc(Cl)c3)C2C1", "note": "(stereo unspecified)", "values": [{"measurement": "EC50", "setting": "[1]", "value": "1.8 µM (active)"}]}
{"smiles": "O=C1Nc2ccccc2/C1=C1/SC(=S)N(NC(=O)c2ccccc2)C1=O", "values": [{"measurement": "IC50", "setting": "Aspartyl aminopeptidase", "value": "> 73.5 µM (not active)"}, {"measurement": "IC50", "setting": "Aminopeptidase N", "value": "11.2 µM (active)"}, {"measurement": "IC50", "setting": "Procathepsin L", "value": "38.3 µM (not active)"}, {"measurement": "IC50", "setting": "[2]", "value": "6.46 µM (active)"}, {"measurement": "IC50", "setting": "[3]", "value": "> 100 µM (inactive)"}, {"measurement": "IC50", "setting": "[4]", "value": "3.09 µM (active)"}]}
{"smiles": "CCCN(CCC)Cc1c(C(=O)NN=C/C(C)=C\\c2ccco2)nnn1-c1nonc1N", "values": [{"measurement": "IC50", "setting": "Cannabinoid receptor 2 [5]", "value": "> 32 µM (inactive)"}, {"measurement": "EC50", "setting": "Cannabinoid receptor 2 [6]", "value": "> 32 µM (inactive)"}, {"measurement": "EC50", "setting": "[7]", "value": "0.597 µM (active)"}, {"measurement": "IC50", "setting": "Cannabinoid receptor 1", "value": "> 32 µM (inactive)"}]}
{"smiles": "CCOc1ccccc1C(=O)NC1CC2CCCC(C1)N2Cc1ccc(C)cc1", "note": "(stereo unspecified)", "values": [{"measurement": "IC50", "setting": "[8]", "value": "> 32 µM (inactive)"}, {"measurement": "EC50", "setting": "Mu-type opioid receptor", "value": "> 32 µM (inactive)"}, {"measurement": "EC50", "setting": "[9]", "value": "> 32 µM (inactive)"}, {"measurement": "IC50", "setting": "[10]", "value": "4.81 µM (active)"}, {"measurement": "EC50", "setting": "Beta-galactosidase", "value": "> 31.5 µM (inactive)"}, {"measurement": "IC50", "setting": "[11]", "value": 21.7, "unit": "µM"}]}
{"smiles": "O=C(O)c1cccc(NC(=S)N/N=C/c2ccccn2)c1", "values": [{"measurement": "IC50", "setting": "Exodeoxyribonuclease V", "value": "> 119 µM (inactive)"}, {"measurement": "IC50", "setting": "Nonstructural protein 1", "value": "4.06 µM (active)"}, {"measurement": "IC50", "setting": "[12]", "value": "> 119 µM (inactive)"}, {"measurement": "AC50", "setting": "[13]", "value": "8.63 µM (active)"}]}
